# Experimental data reported in BindingDB's records for doi:10.1021/jm801490z (Nantong University, 2021).
# Columns and labels:
# [1] = target: T1, Replicase polyprotein 1ab (Severe acute respiratory syndrome coronavirus 2, UniProt P0DTD1); test: Inhibition of SARS-CoV-2 3CL protease expressed in Escherichia coli using Dabcyl-KTSAVLQSGFRKM-E(Edans)-NH2 as substrate preincubated for 30 mins followed by substrate addition and measured after 3 hrs
# [2] = target: T1, Replicase polyprotein 1ab; test: Inhibition of SARS-CoV-2 Main protease (3264 to 3569 residues) expressed in Escherichia coli BL21-Gold (DE3) using Dabcyl-KTSAVLQSGFRKM-E(Edans)-NH2 as substrate by FRET assay
SMILES,IC50 [1] [nM],IC50 [2] [nM]
Cn1nc(-c2ccc(C(F)(F)F)cc2)nc2c(=O)n(C)c(=O)cc1-2,260,–
CC(C)(C)OC(=O)Nc1ccn([C@@H](CC2CC2)C(=O)N[C@@H](C[C@@H]2CCNC2=O)C(=O)C(=O)NCc2ccccc2)c(=O)c1,–,670
